According to ChEMBL document CHEMBL5584309, “Discovery of Novel Mcl-1 Inhibitors with a 3-Substituted-1H-indole-1-yl Moiety Binding to the P1-P3 Pockets to Induce Apoptosis in Acute Myeloid Leukemia Cells” (J Med Chem, 2024):
Calls of active or inactive are those of the source. The rule behind the calls is not given here.

What was measured:
THP-1 [1] = assay: Induction of apoptosis in human THP-1 cells assessed as viable cells at 20 uM measured after 24 hrs by Annexin V-FITC/propidium iodide double staining based assay (reference value: 93.02%); format: functional; details: read-out: Activity
HL-60 [2] = assay: Induction of apoptosis in human HL-60 cells assessed as viable cells at 2.5 uM measured after 24 hrs by Annexin V-FITC/propidium iodide double staining based assay (reference value: 92.68%); format: functional; details: read-out: Activity
[3] = Toxicity in NOD SCID mouse xenografted with human HL-60 cells assessed as change in lung tissue at 80 mg/kg, ip once daily after 15 days of tumor inoculation treated for 12 days; format: organism-based; details: in vivo, 288 h, time 12 day
[4] = Toxicity in NOD SCID mouse xenografted with human THP-1 cells assessed as change in body weight at 40 to 80 mg/kg, ip once daily after 10 days of tumor inoculation treated for 14 days relative to control; format: organism-based; details: in vivo, 336 h, dose 40-80 mg/kg, time 14 day
[5] = Toxicity in NOD SCID mouse xenografted with human HL-60 cells assessed as change in spleen tissue at 80 mg/kg, ip once daily after 15 days of tumor inoculation treated for 12 days; format: organism-based; details: in vivo, 288 h, time 12 day
[6] = MRT (0 to t) in Sprague-Dawley rat at 20 mg/kg, ip measured upto 24 hrs by LC-MS/MS analysis; format: ADME, organism-based; details: in vivo
[7] = target: Voltage-gated inwardly rectifying potassium channel KCNH2 (Homo sapiens, UniProt Q12809); assay: Inhibition of hERG; format: toxicity
[8] = Toxicity in NOD SCID mouse assessed as change in heart tissue at 25 mg/kg, ip administered for 7 consecutive days by Hematoxylin-eosin (HE) staining based assay; format: organism-based; details: in vivo, 168 h, time 7 day
THP-1 [9] = assay: Induction of apoptosis in human THP-1 cells assessed as necrotic cells at 20 uM measured after 24 hrs by Annexin V-FITC/propidium iodide double staining based assay (reference value: 0.13%); format: functional
HL-60 [10] = assay: In vivo antitumor activity against human HL-60 cells xenografted in female NOD SCID mouse assessed as reduction in tumor weight at 80 mg/kg, ip once daily after 15 days of tumor inoculation treated for 12 days; format: functional, organism-based; details: time 12.0 day
HL-60 [11] = assay: Induction of apoptosis in human HL-60 cells assessed as late apoptotic cells at 2.5 uM measured after 24 hrs by Annexin V-FITC/propidium iodide double staining based assay (reference value: 3.78%); format: functional
HL-60 [12] = assay: Induction of apoptosis in human HL-60 cells assessed as early apoptotic cells at 10 uM measured after 24 hrs by Annexin V-FITC/propidium iodide double staining based assay (reference value: 3.37%); format: functional
[13] = Toxicity in NOD SCID mouse xenografted with human HL-60 cells assessed as change in heart tissue at 80 mg/kg, ip once daily after 15 days of tumor inoculation treated for 12 days; format: organism-based; details: in vivo, 288 h, time 12 day
[14] = Metabolic stability in rat plasma assessed as compound remaining measured after 10 mins by LC-MS/MS analysis; format: ADME, cell-free; details: read-out: Stability
HL-60 [15] = assay: Induction of apoptosis in human HL-60 cells assessed as necrotic cells at 5 uM measured after 24 hrs by Annexin V-FITC/propidium iodide double staining based assay (reference value: 0.18%); format: functional
Bcl-2-related protein A1 = target: T1, Bcl-2-related protein A1 (Homo sapiens, UniProt Q16548); assay: Binding affinity to Bfl-1 (unknown origin) pre-incubated for 30 mins followed by addition FAM-peptide further incubated for 20 mins by fluorescence polarization-based binding assay
T1 sequence (Q16548 whole entry): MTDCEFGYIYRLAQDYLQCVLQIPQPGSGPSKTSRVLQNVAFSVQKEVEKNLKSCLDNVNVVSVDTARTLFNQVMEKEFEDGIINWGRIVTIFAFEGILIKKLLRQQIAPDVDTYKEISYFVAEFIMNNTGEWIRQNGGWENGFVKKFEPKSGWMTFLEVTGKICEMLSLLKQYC

[16] = Toxicity in NOD SCID mouse assessed as change in kidney tissue at 25 mg/kg, ip administered for 7 consecutive days by Hematoxylin-eosin (HE) staining based assay; format: organism-based; details: in vivo, 168 h, time 7 day
[17] = Metabolic stability in rat liver microsomes assessed as compound remaining measured after 15 mins by LC-MS/MS analysis; format: ADME, Microsome; details: read-out: Stability
HL-60 [18] = assay: In vivo antitumor activity against human HL-60 cells xenografted in female NOD SCID mouse assessed as tumor growth inhibition at 80 mg/kg, ip once daily after 15 days of tumor inoculation treated for 12 days relative to control; format: functional; details: HL-60, 288 h, time 12 day, read-out: TGI
[19] = Toxicity in NOD SCID mouse assessed as change in spleen tissue at 25 mg/kg, ip administered for 7 consecutive days by Hematoxylin-eosin (HE) staining based assay; format: organism-based; details: in vivo, 168 h, time 7 day
[20] = Tmax in Sprague-Dawley rat at 20 mg/kg, ip measured upto 24 hrs by LC-MS/MS analysis; format: ADME, organism-based; details: in vivo
[21] = target: Induced myeloid leukemia cell differentiation protein Mcl-1 (Homo sapiens, UniProt Q07820); assay: Inhibition of Mcl-1 in human THP-1 cells assessed as dissociation of Bim from Mcl-1 at 20 uM measured after 24 hrs by Co-immunoprecipitation (Co-IP) assay; format: cell-based
HL-60 [22] = assay: Induction of apoptosis in human HL-60 cells assessed as early apoptotic cells at 5 uM measured after 24 hrs by Annexin V-FITC/propidium iodide double staining based assay (reference value: 3.37%); format: functional
[23] = target: T2, Apoptosis regulator Bcl-2 (Homo sapiens, UniProt P10415); assay: Binding affinity to Bcl-2 (unknown origin) pre-incubated for 30 mins followed by addition FAM-peptide further incubated for 20 mins by fluorescence polarization-based binding assay
[24] = Cmax in Sprague-Dawley rat at 5 mg/kg, iv measured upto 24 hrs by LC-MS/MS analysis; format: ADME, organism-based; details: in vivo
[25] = target: T2, Apoptosis regulator Bcl-2; assay: Binding affinity to Bcl-2 in human THP-1 cells assessed as dissociation of Bim from Bcl-2 at 20 uM measured after 24 hrs by Co-immunoprecipitation (Co-IP) assay; format: cell-based
[26] = Toxicity in NOD SCID mouse xenografted with human THP-1 cells assessed as change in spleen tissue at 40 to 80 mg/kg, ip once daily after 10 days of tumor inoculation treated for 14 days relative to control; format: organism-based; details: in vivo, 336 h, dose 40-80 mg/kg, time 14 day
HL-60 [27] = assay: Induction of apoptosis in human HL-60 cells assessed as viable cells at 10 uM measured after 24 hrs by Annexin V-FITC/propidium iodide double staining based assay (reference value: 92.68%); format: functional; details: read-out: Activity
[28] = Toxicity in NOD SCID mouse xenografted with human HL-60 cells assessed as change in kidney tissue at 80 mg/kg, ip once daily after 15 days of tumor inoculation treated for 12 days; format: organism-based; details: in vivo
HL-60 [29] = assay: In vivo antitumor activity against human HL-60 cells xenografted in female NOD SCID mouse assessed as reduction in tumor volume at 80 mg/kg, ip once daily after 15 days of tumor inoculation treated for 12 days; format: functional, organism-based; details: time 12.0 day
HL-60 [30] = assay: In vivo antitumor activity against human HL-60 cells xenografted in female NOD SCID mouse assessed as tumor growth inhibition at 40 mg/kg, ip once daily after 15 days of tumor inoculation treated for 12 days relative to control; format: functional; details: read-out: TGI

T2 sequence (P10415 whole entry): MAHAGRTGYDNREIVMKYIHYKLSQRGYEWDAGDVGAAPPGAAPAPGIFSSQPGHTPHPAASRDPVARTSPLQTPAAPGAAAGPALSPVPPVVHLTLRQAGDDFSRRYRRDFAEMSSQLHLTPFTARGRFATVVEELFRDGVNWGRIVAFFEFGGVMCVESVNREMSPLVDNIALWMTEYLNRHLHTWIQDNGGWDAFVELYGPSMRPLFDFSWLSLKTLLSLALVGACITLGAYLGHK
Sequence of Induced myeloid leukemia cell differentiation protein Mcl-1 (Q07820 whole entry): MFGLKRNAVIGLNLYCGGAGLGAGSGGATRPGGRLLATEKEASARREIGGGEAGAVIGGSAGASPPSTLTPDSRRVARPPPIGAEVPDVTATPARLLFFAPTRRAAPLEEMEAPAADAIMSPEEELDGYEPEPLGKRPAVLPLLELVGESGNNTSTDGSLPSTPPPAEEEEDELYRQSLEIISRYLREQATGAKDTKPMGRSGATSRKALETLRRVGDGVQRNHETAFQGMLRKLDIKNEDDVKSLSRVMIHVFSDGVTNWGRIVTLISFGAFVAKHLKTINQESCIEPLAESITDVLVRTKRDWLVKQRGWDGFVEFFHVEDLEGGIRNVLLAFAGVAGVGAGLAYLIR
Sequence of Voltage-gated inwardly rectifying potassium channel KCNH2 (Q12809 whole entry): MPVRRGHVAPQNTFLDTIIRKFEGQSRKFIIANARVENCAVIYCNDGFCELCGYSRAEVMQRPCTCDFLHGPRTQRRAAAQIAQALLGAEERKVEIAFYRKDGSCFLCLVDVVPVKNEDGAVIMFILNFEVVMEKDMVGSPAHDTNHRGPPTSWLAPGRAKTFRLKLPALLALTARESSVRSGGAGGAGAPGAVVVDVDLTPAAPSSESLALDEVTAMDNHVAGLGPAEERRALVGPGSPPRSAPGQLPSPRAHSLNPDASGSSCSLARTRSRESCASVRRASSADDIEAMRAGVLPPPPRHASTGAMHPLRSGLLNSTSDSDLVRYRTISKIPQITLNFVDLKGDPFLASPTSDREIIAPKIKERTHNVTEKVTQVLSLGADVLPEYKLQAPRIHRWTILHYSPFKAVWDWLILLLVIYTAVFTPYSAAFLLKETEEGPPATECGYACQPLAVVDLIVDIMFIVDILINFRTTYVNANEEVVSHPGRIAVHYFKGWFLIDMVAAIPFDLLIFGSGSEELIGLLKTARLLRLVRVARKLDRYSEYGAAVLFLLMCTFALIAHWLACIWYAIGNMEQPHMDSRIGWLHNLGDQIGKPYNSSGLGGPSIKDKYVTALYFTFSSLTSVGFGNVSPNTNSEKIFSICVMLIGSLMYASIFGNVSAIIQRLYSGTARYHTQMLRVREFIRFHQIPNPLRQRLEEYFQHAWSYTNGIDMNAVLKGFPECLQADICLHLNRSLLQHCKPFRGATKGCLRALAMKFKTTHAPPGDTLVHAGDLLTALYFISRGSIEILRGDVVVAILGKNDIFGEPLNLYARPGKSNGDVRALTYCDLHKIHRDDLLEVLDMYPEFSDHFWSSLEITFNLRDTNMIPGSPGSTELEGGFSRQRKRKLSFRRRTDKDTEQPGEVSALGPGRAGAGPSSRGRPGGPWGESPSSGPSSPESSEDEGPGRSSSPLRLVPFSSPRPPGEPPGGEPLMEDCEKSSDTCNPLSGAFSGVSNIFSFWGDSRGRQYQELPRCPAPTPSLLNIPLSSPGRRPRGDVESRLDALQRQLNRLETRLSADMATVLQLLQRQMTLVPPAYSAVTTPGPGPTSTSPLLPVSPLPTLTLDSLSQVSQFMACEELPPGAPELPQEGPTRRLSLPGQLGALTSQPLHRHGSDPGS

| Structure (SMILES) | viability at 20 µM (THP-1 [1]) [%] | viability at 2.5 µM (HL-60 [2]) [%] | Activity (THP-1 [9]) [%] | Activity (HL-60 [11]) [%] | Activity (HL-60 [12]) [%] | remaining at 10 min [14] [%] | Activity (HL-60 [15]) [%] | IC50 (Bcl-2-related protein A1) [µM] | remaining at 0.25 h [17] [%] | Activity [21] | Activity (HL-60 [22]) [%] | IC50 [23] [µM] | viability at 10 µM (HL-60 [27]) [%] | other results |
| --- | --- | --- | --- | --- | --- | --- | --- | --- | --- | --- | --- | --- | --- | --- |
| Cc1cc(OCCCc2c(C(=O)O)n(CCN3CCOCC3)c3c(-c4ccccc4Cn4cc(CCN(CCN5CCOCC5)S(=O)(=O)c5ccc(F)cc5)c5ccccc54)cccc23)cc(C)c1Cl | 68.6 | 92.8 | 0.52 | 3.95 | 12.51 | 101 | 0.57 | > 10 | 67.4 | Active | 4.06 | > 100 | 41.2 | Activity [3]: Non-Toxic; Activity [4]: Non-Toxic; Activity [5]: Non-Toxic; MRT last at 24 h [6]: 6.51 h; IC50 [7]: > 50 µM; Activity [8]: Non-Toxic; Activity (HL-60 [10]): Active; Activity [13]: Non-Toxic; Activity [16]: Non-Toxic; inhibition in vivo at 80 mg/kg (HL-60 [18]): 63.7%; Activity [19]: Non-Toxic; Tmax [20]: 5.33 h; Cmax [24]: 46500 ng/mL; Activity [25]: inactive; Activity [26]: Non-Toxic; Activity [28]: Non-Toxic; Activity (HL-60 [29]): Active; inhibition in vivo at 40 mg/kg (HL-60 [30]): 46.1% |
| Cc1nn(C)c(COc2ccc(N3CCN(S(=O)(=O)N(C)C)CC3)cc2)c1-c1cccc2c(CCCOc3cccc4ccccc34)c(C(=O)O)n(CCN3CCOCC3)c12 | 41.9 | 96.2 | 0.62 | 2.14 | 11.84 | 93.3 | 1.28 | > 10 | 67.6 | Active | 1.28 | > 100 | 33 |  |
